# PubChem BioAssay AID1949 (Southern Research Institute, 2009)
# Records with an inconclusive call do not appear. The source made the active and inactive calls. How the calls were made is not given here.
# Tested on: M. tuberculosis H37Rv growth inhibition
# Experiment: Mycobacterium tuberculosis H37Rv growth inhibition, cell based, confirmatory dose response (AID 1949);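 further: bacteria grown 7 days with compound before Alamar blue readout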
row,Compound,IC50
1,O=C(Nc1ccc(Br)c(C(F)(F)F)c1)c1ccccc1,3.26 µg/mL
2,O=C(OCc1ccccn1)c1ccc(COc2cccc3ccccc23)cc1,6.98 µg/mL
3,Cc1ccc(C(C)C)cc1OCCCCn1ccnc1,1.88 µg/mL
4,COC(C)(C)C#CC(=O)c1cccc2ccccc12,2.78 µg/mL
5,O=C(NC(=S)Nc1cccc(C(F)(F)F)c1)c1cccs1,2.39 µg/mL
6,c1ccc(CCc2ccccc2-c2nc(-c3ccncc3)no2)cc1,8.77 µg/mL
7,CC(=O)Oc1cccc2ccc(/C=C/c3c(F)cccc3Cl)nc12,< 0.1 µg/mL
8,CCNc1nc(NCC)nc(SCCOc2ccc(Br)cc2)n1,4.24 µg/mL
9,CCCCc1ccc(NC(=O)COc2ccc(OCC)cc2)cc1,4.9 µg/mL
10,CC(C)(C)NCCCCOc1ccc(Cl)cc1C(C)(C)C,3.77 µg/mL
11,O=C(Nc1cccc([N+](=O)[O-])c1)Nc1ccc(Cl)c(C(F)(F)F)c1,0.19 µg/mL
12,CCCc1cc2c(=O)c(-c3ccc4c(c3)OCCCO4)coc2cc1OCC(=O)OCC,0.3 µg/mL
13,O=C(CSc1ccccc1)Nc1ccc(-c2nc3ccccc3c(=O)o2)cc1,0.47 µg/mL
14,COc1cccc(C(=O)Nc2ccc(Cl)c(C(F)(F)F)c2)c1OC,14.5 µg/mL
15,CCC(C)Oc1ccc(C(=O)NC(=S)Nc2ccc(N3CCOCC3)cc2)cc1 (centres undefined),1.22 µg/mL
16,Cc1cc(C(C)(C)C)ccc1OCCOCCn1ccnc1,2.93 µg/mL
17,COc1ccc2nc(NC(=O)C(Sc3ccccc3)c3ccccc3)sc2c1 (centres undefined),4.87 µg/mL
18,Cc1ccc(N2CCN(CC(O)COc3ccc4ccccc4c3)CC2)c(C)c1 (centres undefined),9.31 µg/mL
19,CCc1ccc(Oc2nc([N+](=O)[O-])nn2C)cc1,1.13 µg/mL
20,O=C(COc1cccc2ccccc12)c1ccc(Cl)cc1,34 µg/mL

row,Compound,IC50
1,Cc1ccccc1OCCOc1cccc(C=O)c1,6.79 µg/mL
2,CCOc1ccc2nc3cc(N)ccc3c(N)c2c1,0.81 µg/mL
3,C/C(=N/N=C1\NC(=O)C(Cc2ccc(F)cc2)S1)c1ccc(C)cc1 (centres undefined),> 50 µg/mL (inactive)
4,Cc1cccc(NC(=O)c2cc(-c3cccs3)nc3ccccc23)n1,1.82 µg/mL
5,COc1ccc2nc(C)cc(Nc3ccccc3O)c2c1,8.28 µg/mL
6,CCOC(=O)COc1ccc2c(=O)c(Oc3ccc(F)cc3)c(C)oc2c1,1.51 µg/mL
7,O=S(=O)(CCSc1nc2ccccc2s1)c1nc2ccccc2s1,7.23 µg/mL
8,COc1ccc(C(=O)/C=C/Nc2cc(Cl)ccc2O)cc1OC,4.6 µg/mL
9,COc1ccc(-n2nc3ccc(NC(=O)c4ncn[nH]4)cc3n2)cc1Cl,> 50 µg/mL (inactive)
10,CC(C)C(=O)N1CCN(c2ccc(NC(=O)c3ccc([N+](=O)[O-])o3)cc2)CC1,0.21 µg/mL
11,CCOc1ccc(NC(=O)c2c(NC(=O)CNCCN3CCOCC3)sc3c2CCC3)cc1,1.33 µg/mL
12,Cc1ccc(-c2cc(C(=O)N3CCCc4ccccc43)no2)cc1,9.33 µg/mL
13,COc1ccc(OC(=O)c2sc3ccccc3c2Cl)cc1,> 50 µg/mL (inactive)
14,CC(C)(C)NCCCOc1ccc(Cl)cc1C(C)(C)C,23.3 µg/mL
15,CCCn1c2ccccc2c2nc3ccccc3nc21,> 50 µg/mL (inactive)
16,Cc1cccc(C)c1OCc1nnc(SCC(=O)NCCc2ccccc2)o1,1.75 µg/mL
17,C=CCn1c(O)c(C2=c3ccccc3=NC2=O)sc1=N,< 0.1 µg/mL
18,CCN(CC)CCn1nc2c3c(cccc3c1=O)-c1ccccc1-2,5.48 µg/mL
19,O=C(CSc1ccc(Br)cc1)Nc1ccccc1F,1.6 µg/mL
20,NC(=O)CSc1nnc(SCc2ccc(F)cc2)s1,9.02 µg/mL

row,Compound,IC50
1,Cc1ccccc1Nc1nc(-c2ccccn2)cs1,< 0.1 µg/mL
2,Cc1ccc2c(c1)c1c(n2CC(O)CN2CCCCCC2)C(=O)CCC1 (centres undefined),6.18 µg/mL
3,CCOC(=O)COc1ccc2c(c1)c(C(C)=O)c(C)n2Cc1ccccc1,24.9 µg/mL
4,O=C(CSc1ccc(Br)cc1)Nc1cccc(Cl)c1,1.51 µg/mL
5,CN1CCN(c2ccc(NC(=O)c3ccc(-c4ccc(Cl)cc4)o3)cc2)CC1,38 µg/mL
6,COc1cccc(CN2CCC(N(CCc3ccccc3)Cc3ccccc3)CC2)c1OC,6.32 µg/mL
7,O=C1C(=O)N(Cc2ccccc2Cl)c2ccc(Br)cc21,3.79 µg/mL
8,CCOC(=O)C(C)Oc1noc2nc(-c3ccccc3)ccc12 (centres undefined),3.92 µg/mL
9,CN(C)CCCNc1nn2c(=O)c3c(-c4ccc(Cl)cc4)csc3nc2c2ccccc12,35.1 µg/mL
10,CC1CCC(C(=O)c2c(O)c3ccccc3oc2=O)CC1 (centres undefined),> 50 µg/mL (inactive)
11,Cc1ccc(C(=O)Nc2ccc(N3CCN(C)CC3)cc2)cc1Cl,46.2 µg/mL
12,O=C(Nc1cccnc1)c1ccc2c(c1)C1C3CCC(C3)C1C(c1ccccc1)N2 (centres undefined),37.5 µg/mL
13,C/C(=N/N=C1\NC(=O)C(Cc2ccc(F)cc2)S1)c1ccc(Cl)cc1 (centres undefined),1.48 µg/mL
14,CCCCOc1ccc(S(=O)(=O)Nc2ccc(C)c(Cl)c2)cc1,5.13 µg/mL
15,COc1cc2cc(-c3nc4ccccc4[nH]3)c(N)nc2cc1OC,3.24 µg/mL
16,CCOc1ccc(C(=O)NC(=S)Nc2ccc(N3CCN(C)CC3)c(Cl)c2)cc1Cl,> 50 µg/mL (inactive)
17,Cc1cc2c(cc1C)N(Cc1ccc(C(C)(C)C)cc1)C1=NCCCN12,1.2 µg/mL
18,COc1cccc2c(C)nc(Nc3nc4ccccc4c(=O)[nH]3)nc12,> 50 µg/mL (inactive)
19,CCCCc1ccc2nc(NC(=O)c3cccs3)sc2c1,6.52 µg/mL
